Legend:
[1] = test system: MIA PaCa-2 or SW1990 pancreatic cancer cells; assay: Colony formation assay, SOS1 inhibitor combined with targeted agents; format: cell-based, human; conditions: 7 days of drug treatment, crystal violet absorbance at 590 nm; combined with one or more of the agents listed
Method: Compound 1, 2, 3, 3a, 3b, 4, 4a, 4b, 5, 6, 6a, 6b and 7 were tested for inhibition of colony formation potential in combination with one or more of the following agents in MIA PaCa-2 or SW1990 pancreatic cancer cells: • EGFR inhibitor: Afatinib, KRAS-G12C inhibitor: AMG 510, KRAS-G12C inhibitor: MRTX849, KRAS-G12D inhibitor: MRTX1133, ERK1/2 inhibitor: LY3214996 and BVD-523, BRAF inhibitor: Encorafenib, pan-RAF inhibitor: LXH254, PRMT5 inhibitor: compound 24 of WO 2019116302, Type I PRMT inhibitor: GSK3368715, PI3K inhibitor: BYL719, FGFR inhibitor: Nintedanib, CDK4/6 inhibitor: Abemaciclib, and other chemotherapeutic agent: Gemcitabine.
Colony formation assay: MIA PaCa-2 cells or SW1990 cells were seeded at 500 cells per well or 1500 cells/well, respectively in 48 well tissue culture plate and cells were allowed to settle overnight (16 to 20 h). On the following day, cells were treated with various concentrations of targeted agents to generate IC50 with or without increasing concentrations of SOS1 inhibitor (as depicted in the figures), and the assay plates were incubated under normal cell culture conditions. After 7 days of drug treatment, media was removed from each well and plates were washed with PBS. Cell colonies were stained with crystal violet solution for 2-5 min. Plate was then washed carefully under tap water and air dried. For quantitation, 200 μL destaining solution containing 10% Glacial acetic acid was added to each well and stained colonies were allowed to solubilize for 20-30 min on plate shaker. After solubilization, absorbance of the extracted stain was recorded in BioTek Synergy Neo U plate reader at 590 nm. Absorbance values were directly proportional to colony growth.

[2] = test system: MIA PaCa-2 human pancreatic cancer xenograft; assay: In vivo efficacy, Compound 1 or 4b combined with AMG 510, xenograft; design: species or system nude mice; conditions: single agent; for tumor growth inhibition: 30 mg/kg b.i.d.
[3] = test system: MIA PaCa-2 human pancreatic cancer xenograft; assay: In vivo efficacy, Compound 4b combined with Afatinib or Compound 24 of WO 2019116302, xenograft; design: species or system nude mice; conditions: single agent: Compound 4b 15 mg/kg b.i.d.; Afatinib 12.5 mg/kg q.d.; Compound 24 of WO 2019116302 1.0 mg/kg b.i.d.
[4] = test system: MIA PaCa-2 human pancreatic cancer xenograft; assay: In vivo efficacy, Compound 7 combined with AMG 510, xenograft; design: species or system nude mice; conditions: single agent
From the text: MIA PaCa-2 tumor fragments were implanted subcutaneously in the right flank region of nude mice. Tumor-bearing mice were randomized once the tumors reached an average volume of ˜155-164 mm^3 (tumor volume range 66-298 mm^3).

[5] = test system: MIA PaCa-2 xenograft; assay: In vivo efficacy, Compound 5 combined with Compound 24 of WO 2019116302, xenograft; design: species or system nude mice; conditions: single agent: Compound 5 50 mg/kg b.i.d.; Compound 24 of WO 2019116302 dose not given
Method: Compound 5 was tested in combination with Compound 24 of WO 2019116302 in vivo in MIA PaCa-2 xenograft model in nude mice.
20×10^6 MIA PaCa-2 cells were injected subcutaneously in the presence of PBS and Matrigel in 1:1 ratio in nude mice.

[6] = test system: MIA PaCa-2 human pancreatic cancer xenograft; assay: In vivo efficacy, Compound 7 combined with Afatinib, Compound 24 of WO 2019116302 or Ulixertinib, xenograft; design: species or system nude mice; conditions: single agent, Compound 7 15 mg/kg b.i.d.
[7] = test system: MIA PaCa-2 human pancreatic cancer xenograft; assay: In vivo efficacy, Compound 7 combined with LXH254, xenograft; design: species or system nude mice; conditions: single agent: Compound 7 5 mg/kg q.d.; LXH254 50 mg/kg b.i.d.

**Q.** Which “potentiation of activity of combination agents leading to inhibition of colony forming activity” value [1] does the source give for `COC1(C)C(=O)N(C)c2cc3c(N[C@H](C)c4cccc(C(F)(F)C(C)(C)O)c4F)nc(C)nc3cc21` (mixture of isomers) [Compound 4, (R&S)-4-(((R)-1-(3-(1,1-difluoro-2-hydroxy-2-methylpropyl)-2-fluorophenyl)ethyl)amino)-8-methoxy-2,6,8-trimethyl-6,8-dihydro-7H-pyrrolo[2,3-g]quinazolin-7-one] here?
**A.** Its value is “significant potentiation”.

**Q.** How did the “potentiation of activity of combination agents leading to inhibition of colony forming activity” value [1] turn out when `COC1(C)C(=O)N(C)c2cc3nc(C)nc(N[C@H](C)c4cccc(C(F)(F)C(C)(C)O)c4F)c3cc21` (mixture of isomers) [Compound 6, (R&S)-4-(((R)-1-(3-(1,1-difluoro-2-hydroxy-2-methylpropyl)-2-fluorophenyl)ethyl)amino)-6-methoxy-2,6,8-trimethyl-6,8-dihydro-7H-pyrrolo[3,2-g]quinazolin-7-one] was run?
**A.** The value was “significant potentiation”.

**Q.** Which “potentiation of activity of combination agents leading to inhibition of colony forming activity” value [1] does the source give for `CO[C@]1(C)C(=O)N(C)c2cc3nc(C)nc(N[C@H](C)c4cccc(C(F)(F)C(C)(C)O)c4F)c3cc21` (racemic) [Compound 6a, (S/R)-4-(((R)-1-(3-(1,1-difluoro-2-hydroxy-2-methylpropyl)-2-fluorophenyl)ethyl)amino)-6-methoxy-2,6,8-trimethyl-6,8-dihydro-7H-pyrrolo[3,2-g]quinazolin-7-one] here?
**A.** The value was “significant potentiation”.

**Q.** For `Cc1nc(NC(C)c2cccc(C(F)(F)C(C)(C)O)c2)c2cc3c(cc2n1)C(C)(C)C(=O)N3C` (single isomer, unassigned) [Compound 2, (R/S)-4-((1-(3-(1,1-difluoro-2-hydroxy-2-methylpropyl)phenyl)ethyl)amino)-2,6,8,8-tetramethyl-6,8-dihydro-7H-pyrrolo[2,3-g]quinazolin-7-one], which “potentiation of activity of combination agents leading to inhibition of colony forming activity” value [1] is on record?
**A.** The value was “significant potentiation”.

**Q.** For `Cc1nc(N[C@H](C)c2cccc(C(F)(F)C(C)(O)CO)c2F)c2cc3c(cc2n1)C(C)(C)C(=O)N3C` (single isomer, unassigned) [Compound 3a], which “potentiation of activity of combination agents leading to inhibition of colony forming activity” value [1] is on record?
**A.** Its value is “significant potentiation”.

**Q.** How did the “potentiation of activity of combination agents leading to inhibition of colony forming activity” value [1] turn out when `Cc1nc(N[C@H](C)c2cccc(C(F)(F)[C@@](C)(O)CO)c2F)c2cc3c(cc2n1)C(C)(C)C(=O)N3C` (single isomer, unassigned) [Compound 3b] was run?
**A.** Its value is “significant potentiation”.

**Q.** With `CO[C@]1(C)C(=O)N(C)c2cc3c(N[C@H](C)c4cccc(C(F)(F)C(C)(C)O)c4F)nc(C)nc3cc21` (single isomer, unassigned) [Compound 4a] as the compound, how does the “potentiation of activity of combination agents leading to inhibition of colony forming activity” value [1] read?
**A.** Its value is “significant potentiation”.

**Q.** For `COC1(C)C(=O)N(C)c2cc3c(N[C@H](C)c4cccc(C(F)(F)C(C)(C)O)c4F)nc(C)nc3cc21` (single isomer, unassigned) [Compound 4b], which “potentiation of activity of combination agents leading to inhibition of colony forming activity” value [1] is on record?
**A.** The value was “significant potentiation”.

**Q.** What about the tumor growth inhibition [2] of the same compound?
**A.** The tumor growth inhibition was 65.71±7.41%.

**Q.** What about the tumor growth inhibition [3] of the same compound?
**A.** The tumor growth inhibition was 47%.

**Q.** With `COC1(C)C(=O)N(C)c2cc3nc(C)nc(N[C@H](C)c4cccc(C(F)(F)C(C)(C)O)c4F)c3cc21` (single isomer, unassigned) [Compound 6b] as the compound, how does the “potentiation of activity of combination agents leading to inhibition of colony forming activity” value [1] read?
**A.** The value was “significant potentiation”.

**Q.** Which tumor regression ([2]; AMG 510 10 mg/kg q.d.) does the source give for `C=CC(=O)N1CCN(c2nc(=O)n(-c3c(C)ccnc3C(C)C)c3nc(-c4c(O)cccc4F)c(F)cc23)[C@@H](C)C1` [AMG 510, 4-((S)-4-acryloyl-2-methylpiperazin-1-yl)-6-fluoro-7-(2-fluoro-6-hydroxyphenyl)-1-(2-isopropyl-4-methylpyridin-3-yl)pyrido[2,3-d]pyrimidin-2(1H)-one, reference compound] here?
**A.** The tumor regression was 39.43±15.22%.

**Q.** And the “inhibition in tumor growth” value ([4]; AMG 510 3 mg/kg q.d.)?
**A.** Its value is 77.69%.

**Q.** With `CN(C)C/C=C/C(=O)Nc1cc2c(Nc3ccc(F)c(Cl)c3)ncnc2cc1O[C@H]1CCOC1` [Afatinib, (S,E)-N-(4-((3-chloro-4-fluorophenyl)amino)-7-((tetrahydrofuran-3-yl)oxy)quinazolin-6-yl)-4-(dimethylamino)but-2-enamide] as the compound, how does the tumor growth inhibition [3] read?
**A.** Its tumor growth inhibition is 38%.

**Q.** With `Cc1nc(N[C@H](C)c2cccc(C(F)(F)C(C)(C)O)c2F)c2cc3c(cc2n1)C(C)(C)C(=O)N3C` [Compound 1, (R)-4-((1-(3-(1,1-Difluoro-2-hydroxy-2-methylpropyl)-2-fluorophenyl)ethyl)amino)-2,6,8,8-tetramethyl-6,8-dihydro-7H-pyrrolo[2,3-g]quinazolin-7-one] as the compound, how does the “potentiation of activity of combination agents leading to inhibition of colony forming activity” value [1] read?
**A.** The value was “significant potentiation”.

**Q.** What about the tumor growth inhibition [2] of the same compound?
**A.** Its tumor growth inhibition is 63.82±8.32%.

**Q.** With `Cc1nc(N[C@H](C)c2cccc(C(F)(F)C(C)(O)CO)c2F)c2cc3c(cc2n1)C(C)(C)C(=O)N3C` (stereo partly drawn) [Compound 3, 4-(((R)-1-(3-((R&S)-1,1-Difluoro-2,3-dihydroxy-2-methylpropyl)-2-fluorophenyl)ethyl)amino)-2,6,8,8-tetramethyl-6,8-dihydro-7H-pyrrolo[2,3-g]quinazolin-7-one] as the compound, how does the “potentiation of activity of combination agents leading to inhibition of colony forming activity” value [1] read?
**A.** The value was “significant potentiation”.

**Q.** `Cc1nc(N[C@H](C)c2cc(N)cc(C(F)(F)F)c2)c2cc(-c3ccc(=O)n(C)c3)c3c(c2n1)CCC3` [Compound 5, (R)-5-(4-((1-(3-amino-5-(trifluoromethyl)phenyl)ethyl)amino)-2-methyl-8,9-dihydro-7H-cyclopenta[h]quinazolin-6-yl)-1-methylpyridin-2(1H)-one] was tested. Which “potentiation of activity of combination agents leading to inhibition of colony forming activity” value [1] did it give?
**A.** The value was “significant potentiation”.

**Q.** And the tumor growth inhibition [5]?
**A.** Its tumor growth inhibition is 59%.

**Q.** With `CO[C@]1(C)C(=O)N(C)c2cc3c(N[C@H](C)c4cc(N)cc(C(F)(F)F)c4)nc(C)nc3cc21` [Compound 7, (S)-4-(((R)-1-(3-amino-5-(trifluoromethyl)phenyl)ethyl)amino)-8-methoxy-2,6,8-trimethyl-6,8-dihydro-7H-pyrrolo[2,3-g]quinazolin-7-one] as the compound, how does the “potentiation of activity of combination agents leading to inhibition of colony forming activity” value [1] read?
**A.** The value was “significant potentiation”.

**Q.** What about the “inhibition in tumor growth” value [6] of the same compound?
**A.** Its value is 32.86%.

**Q.** And the “inhibition in tumor growth” value [7]?
**A.** The value was 39.82%.

**Q.** And the “inhibition in tumor growth” value ([4]; Compound 7 5 mg/kg q.d.)?
**A.** Its value is 30.40%.

**Q.** And the “inhibition in tumor growth” value ([4]; Compound 7 10 mg/kg q.d.)?
**A.** The value was 43.42%.

**Q.** What about the “inhibition in tumor growth” value ([4]; Compound 7 20 mg/kg q.d.) of the same compound?
**A.** The value was 52.71%.

**Q.** `Nc1nc2cc(CCC3=C[C@@H](n4ccc5c(N)ncnc54)[C@H](O)[C@@H]3O)cc(F)c2cc1Cl` [Compound 24 of WO 2019116302, (1S,2R,5R)-3-(2-(2-amino-3-chloro-5-fluoroquinolin-7-yl)ethyl)-5-(4-amino-7H-pyrrolo[2,3-d]pyrimidin-7-yl)cyclopent-3-ene-1,2-diol, reference compound] was tested. Which tumor growth inhibition [3] did it give?
**A.** The tumor growth inhibition was 52%.

**Q.** And the tumor growth inhibition [5]?
**A.** The tumor growth inhibition was 73%.

**Q.** For `Cc1ccc(NC(=O)c2ccnc(C(F)(F)F)c2)cc1-c1cc(OCCO)nc(N2CCOCC2)c1` [LXH254, N-(3-(2-(2-hydroxyethoxy)-6-morpholinopyridin-4-yl)-4-methylphenyl)-2-(trifluoromethyl)isonicotinamide, reference compound], which “inhibition in tumor growth” value [7] is on record?
**A.** The value was 34.96%.

Source: patent US20240366608A1, “PHARMACEUTICAL COMBINATIONS OF SOS1 INHIBITORS FOR TREATING AND/OR PREVENTING CANCER” (Lupin Limited, priority 2021, published 2024)
